Experimental findings from US7851474B2, “Dipiperazinyl ketones and related analogues” (Neurogen Corporation, priority 2005, dated 2010) are described below.

In this experiment the target is T1, chimeric human H3 receptor (Homo sapiens, UniProt Q9Y5N1, E19D).
T1 construct: made in house; host or cells: Sf9 insect cells (baculovirus infection); P2 membrane preparation
Briefly: Chimeric human H3 receptor GTP binding assay (agonist-stimulated GTP-gamma35S binding, Example 7). In kind it is biochemical. The note with it: read-out: Ki. The gist of the method: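 Sf9 membranes co-expressing the chimeric receptor and heterotrimeric G-protein subunits, 35 μg protein per tube, in pH 7.4 Tris buffer with 10 μM GDP. Test compounds at 10^−10 to 10^−6 M with 1 μM histamine, 60 min at room temperature. Filter-bound GTP-gamma^35S read by scintillation; IC50 from non-linear regression of dose-response curves.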
For orientation: GTPγS is a poorly hydrolysed GTP analogue; its binding reports G protein activation.

Setting [1] is: Table II, "*" in Ki, assay of Example 7.
[2] abbreviates: assay of Example 7, "*" in Ki of Table II.
Where [3] appears, read: Table II "Ki", symbol "*": Ki in the assay of Example 7.
Where [4] appears, read: Table II, assay of Example 7, "*" in Ki.
[5] abbreviates: "*" in Ki of Table II, assay of Example 7.
Setting [6] is: assay of Example 7, symbol * in column headed Ki of Table II.

Like-named read-outs stand apart in the source and are kept apart here.

As usually defined, the Ki is a measure of affinity in units of concentration, obtained from inhibition or displacement.

T1 sequence (Q9Y5N1 with tags, fused parts or gaps E19D): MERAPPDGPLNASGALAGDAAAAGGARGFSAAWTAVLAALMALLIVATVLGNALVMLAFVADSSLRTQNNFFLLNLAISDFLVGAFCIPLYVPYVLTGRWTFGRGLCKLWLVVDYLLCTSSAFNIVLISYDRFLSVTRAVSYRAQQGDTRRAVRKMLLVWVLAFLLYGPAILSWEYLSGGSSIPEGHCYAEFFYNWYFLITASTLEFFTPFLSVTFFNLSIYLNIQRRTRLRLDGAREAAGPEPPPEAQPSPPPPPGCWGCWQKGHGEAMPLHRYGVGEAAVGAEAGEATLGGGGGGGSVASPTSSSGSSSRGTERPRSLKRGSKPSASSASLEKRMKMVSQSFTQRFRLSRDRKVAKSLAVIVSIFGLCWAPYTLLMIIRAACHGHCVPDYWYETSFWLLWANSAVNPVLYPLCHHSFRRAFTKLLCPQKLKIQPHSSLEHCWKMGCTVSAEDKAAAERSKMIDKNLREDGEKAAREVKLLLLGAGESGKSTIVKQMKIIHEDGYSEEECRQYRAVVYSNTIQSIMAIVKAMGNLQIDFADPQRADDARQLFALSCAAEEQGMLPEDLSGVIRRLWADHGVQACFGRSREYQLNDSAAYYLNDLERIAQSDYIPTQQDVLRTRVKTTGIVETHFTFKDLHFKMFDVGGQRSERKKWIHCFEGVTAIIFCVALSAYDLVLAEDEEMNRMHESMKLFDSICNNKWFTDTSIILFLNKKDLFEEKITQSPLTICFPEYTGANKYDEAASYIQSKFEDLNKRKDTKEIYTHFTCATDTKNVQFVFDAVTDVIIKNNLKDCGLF

Turning to `O=C(CN1CCN(c2ccc(-c3ccccc3F)cc2)CC1)N1CCN(C2CCC2)CC1` [Compound 707, 1-cyclobutyl-4-{[4-(2′-fluorobiphenyl-4-yl)piperazin-1-yl]acetyl}piperazine], the Ki under setting [1] was below 1000 nM.
On to `CCCCC(=O)NC1CCN(CC(=O)N2CCN(C3CCC3)CC2)C1` (centres unmarked) [Compound 1257, N-{1-[2-(4-cyclobutylpiperazin-1-yl)-2-oxoethyl]pyrrolidin-3-yl}pentanamide], for which, under setting [2], the Ki is below 1000 nM.
Regarding `Cc1ccc(F)c(-c2cnc(N3CCN(CC(=O)N4CCN(C5CCC5)CC4)CC3)cn2)c1Cl` [Compound 897, 2-(2-chloro-6-fluoro-3-methylphenyl)-5-{4-[2-(4-cyclobutylpiperazin-1-yl)-2-oxoethyl]piperazin-1-yl}pyrazine], the Ki under setting [3] was below 1000 nM.
As to `O=C(CN1CCN(c2ccc(-c3ccc(Cl)cc3Cl)nn2)CC1)N1CCN(C2CCC2)CC1` [Compound 1055, 3-{4-[2-(4-cyclobutylpiperazin-1-yl)-2-oxoethyl]piperazin-1-yl}-6-(2,4-dichlorophenyl)pyridazine], under setting [4], the Ki is below 1000 nM.
On to `CC1CCCCN1C(=O)c1ccc(N2CCN(CC(=O)N3CCN(C4CCC4)CC3)CC2)cc1` (centres unmarked) [Compound 644, 1-cyclobutyl-4-[(4-{4-[(2-methylpiperidin-1-yl)carbonyl]phenyl}piperazin-1-yl)acetyl]piperazine], for which the Ki under setting [1] was below 1000 nM.
Same read-out and setting: then `O=C(CN1CCN(c2ccc(-c3cc(F)ccc3F)cc2)CC1)N1CCN(C2CCC2)CC1` [Compound 685, 1-cyclobutyl-4-{[4-(2′,5′-difluorobiphenyl-4-yl)piperazin-1-yl]acetyl}piperazine], with below 1000 nM.
With `COc1cccc(OC)c1-c1ccc(N2CCN(CC(=O)N3CCN(C4CCC4)CC3)CC2)nn1` [Compound 1057, 3-{4-[2-(4-cyclobutylpiperazin-1-yl)-2-oxoethyl]piperazin-1-yl}-6-(2,6-dimethoxyphenyl) pyridazine], under setting [4], the Ki was below 1000 nM.
In the case of `COC[C@H]1CCCN1C(=O)c1cccc(N2CCN(CC(=O)N3CCN(C4CCC4)CC3)CC2)c1` [Compound 744, 1-cyclobutyl-4-{[4-(3-{[(2R)-2-(methoxymethyl)pyrrolidin-1-yl]car-bonyl}phenyl)piperazin-1-yl]acetyl}piperazine], the Ki under setting [1] is below 1000 nM.
As to `CCC(C)N1CCN(C(=O)CN2CCN(c3cc(Cl)cc(Cl)c3)CC2)CC1` (centres unmarked) [Compound 872, 1-sec-butyl-4-{[4-(3,5-dichlorophenyl)piperazin-1-yl]acetyl}piperazine], under setting [3], the Ki is below 1000 nM.
As for `O=C(CN1CCN(c2cnc(-c3ccc(Oc4ccccc4)cc3)cn2)CC1)N1CCN(C2CCC2)CC1` [Compound 936, 2-{4-[2-(4-cyclobutylpiperazin-1-yl)-2-oxoethyl]piperazin-1-yl}-5-(4-phenoxyphenyl)pyrazine], the Ki under setting [3] was below 1000 nM.
`COc1ccc(OC)c(CC(=O)N2CCN(CC(=O)N3CCN(C4CCC4)CC3)CC2)c1` [Compound 509, 1-cyclobutyl-4-({4-[(2,5-dimethoxyphenyl)acetyl]piperazin-1-yl}acetyl)piperazine]: the Ki under setting [5] was below 1000 nM.
On the same count and under the same terms, then `CC(C)N1CCN(C(=O)CN2CCC(N(C)C)C2)CC1` (centres unmarked) [Compound 446, 1-[2-(4-isopropylpiperazin-1-yl)-2-oxoethyl]-N,N-dimethylpyrrolidin-3-amine], with below 1000 nM.
For the compound `Cc1ccc(-c2ccc(N3CCN(CC(=O)N4CCN(C5CCC5)CC4)CC3)cc2)c(F)c1` [Compound 704, 1-cyclobutyl-4-{[4-(2′-fluoro-4′-methylbiphenyl-4-yl)piperazin-1-yl]acetyl}piperazine], the Ki under setting [1] was below 1000 nM.
Turning to `CC(C)c1ccc(C(=O)NC2CCN(CC(=O)N3CCN(C4CCC4)CC3)C2)cc1` (centres unmarked) [Compound 1235, N-{1-[2-(4-cyclobutylpiperazin-1-yl)-2-oxoethyl]pyrrolidin-3-yl)-4-isopropylbenzamide], the Ki under setting [2] is below 1000 nM.
On to `CC(C)(C)CC(=O)NC1CCN(CC(=O)N2CCN(C3CCC3)CC2)C1` (centres unmarked) [Compound 1252, N-{1-[2-(4-cyclobutylpiperazin-1-yl)-2-oxoethyl]pyrrolidin-3-yl}-3,3-dimethylbutanamide], for which, under setting [2], the Ki is below 1000 nM.
Same read-out and setting: then `O=C(NC1CCN(CC(=O)N2CCN(C3CCC3)CC2)C1)c1ccc(Oc2ccccc2)cc1` (centres unmarked) [Compound 1244, N-{1-[2-(4-cyclobutylpiperazin-1-yl)-2-oxoethyl]pyrrolidin-3-yl}-4-phenoxybenzamide], with below 1000 nM.
With `O=C(CN1CCC2(CC1)c1ccccc1C(=O)N2C1CCC1)N1CCN(C2CCC2)CC1` [Compound 984, 2-cyclobutyl-1′-[2-(4-cyclobutylpiperazin-1-yl)-2-oxoethyl]spiro[isoindole-1,4′-piperidin]-3(2H)-one], the Ki under setting [4] was below 1000 nM.
Turning to `O=C(CN1CCN(c2ccc(-c3ccc(Cl)cc3Cl)cc2)CC1)N1CCN(C2CCC2)CC1` [Compound 675, 1-cyclobutyl-4-{[4-(2′,4′-dichlorobiphenyl-4-yl)piperazin-1-yl]acetyl}piperazine], the Ki under setting [1] is below 1000 nM.
With `Cc1cccc(N2CCN(CC(=O)N3CCN(C4CCC4)CC3)CC2C)c1` (centres unmarked) [Compound 1104, 4-[2-(4-cyclobutylpiperazin-1-yl)-2-oxoethyl]-2-methyl-1-(3-methylphenyl)piperazine], under setting [4], the Ki is below 1000 nM.
Still for that read-out and setting: then `O=C(CN1CCC2(CC1)CC(=O)N(Cc1ccccc1)C2=O)N1CCN(C2CCC2)CC1` [Compound 982, 2-benzyl-8-[2-(4-cyclobutylpiperazin-1-yl)-2-oxoethyl]-2,8-diazaspiro[4.5]decane-1,3-dione], with below 1000 nM.
In the case of `CCc1cccc(-c2ccc(N3CCN(CC(=O)N4CCN(C5CCC5)CC4)CC3)cc2)c1` [Compound 747, 1-cyclobutyl-4-{[4-(3′-ethylbiphenyl-4-yl)piperazin-1-yl]acetyl}piperazine], the Ki under setting [1] is below 1000 nM.
On to `CC(C)CNC(=O)c1cccc(N2CCN(CC(=O)N3CCN(C4CCC4)CC3)CC2)c1` [Compound 1074, 3-{4-[2-(4-cyclobutylpiperazin-1-yl)-2-oxoethyl]piperazin-1-yl}-N-isobutylbenzamide], for which, under setting [4], the Ki was below 1000 nM.
With `Cc1ccc(F)c(-c2ccc(N3CCN(CC(=O)N4CCN(C5CCC5)CC4)CC3)cc2)c1` [Compound 705, 1-cyclobutyl-4-{[4-(2′-fluoro-5′-methylbiphenyl-4-yl)piperazin-1-yl]acetyl}piperazine], the Ki under setting [1] is below 1000 nM.
As for `CC(=O)c1ccc(N2CCN(CC(=O)N3CCN(C4CCC4)CC3)[C@H](C)C2)cc1` [Compound 306, 1-(4-{4-[2-(4-cyclobutylpiperazin-1-yl)-2-oxoethyl]-3-methylpiperazin-1-yl}phenyl)ethanone], under setting [6], the Ki is below 1000 nM.
Take `Cc1cc(C)cc(C(=O)NC2CCN(CC(=O)N3CCN(C4CCC4)CC3)C2)c1` (centres unmarked) [Compound 1229, N-{1-[2-(4-cyclobutylpiperazin-1-yl)-2-oxoethyl]pyrrolidin-3-yl}-3,5-dimethylbenzamide]: the Ki under setting [2] is below 1000 nM.
Take `O=C(CN1CCN(c2ccc(-c3ccccc3Cl)cc2)CC1)N1CCN(C2CCC2)CC1` [Compound 278, 1-(2′-chlorobiphenyl-4-yl)-4-[2-(4-cyclobutylpiperazin-1-yl)-2-oxoethyl]piperazine]: the Ki under setting [6] was below 1000 nM.
On to `COc1ccc(-c2ccc(N3CCN(CC(=O)N4CCN(C5CCC5)CC4)CC3)nn2)cc1` [Compound 1032, 3-{4-[2-(4-cyclobutylpiperazin-1-yl)-2-oxoethyl]piperazin-1-yl}-6-(4-methoxyphenyl) pyridazine], for which, under setting [4], the Ki was below 1000 nM.
As to `CC(C)CNC(=O)c1ccc(N2CCN(CC(=O)N3CCN(C4CCC4)CC3)CC2)nc1` [Compound 1177, 6-{4-[2-(4-cyclobutylpiperazin-1-yl)-2-oxoethyl]piperazin-1-yl}-N-isobutylnicotinamide], under setting [2], the Ki is below 1000 nM.
Consider `CCCc1ccc(-c2cnc(N3CCN(CC(=O)N4CCN(C5CCC5)CC4)CC3)cn2)cc1` [Compound 931, 2-{4-[2-(4-cyclobutylpiperazin-1-yl)-2-oxoethyl]piperazin-1-yl}-5-(4-propylphenyl)pyrazine], for which, under setting [3], the Ki is below 1000 nM.
For `CCc1cccc(-c2ccc(N3CCN(CC(=O)N4CCN(C5CCC5)CC4)CC3)nn2)c1` [Compound 1019, 3-{4-[2-(4-cyclobutylpiperazin-1-yl)-2-oxoethyl]piperazin-1-yl}-6-(3-ethylphenyl)pyridazine], the Ki under setting [4] was below 1000 nM.
On the same count and under the same terms, then `CCCCc1ccc(-c2ccc(N3CCN(CC(=O)N4CCN(C5CCC5)CC4)CC3)nn2)cc1` [Compound 989, 3-(4-butylphenyl)-6-{4-[2-(4-cyclobutylpiperazin-1-yl)-2-oxoethyl]piperazin-1-yl}pyridazine], with below 1000 nM.
For the compound `CCC(C)N1CCN(C(=O)CN2CCN(c3ccccc3Cl)CC2)CC1` (centres unmarked) [Compound 866, 1-sec-butyl-4-{[4-(2-chlorophenyl)piperazin-1-yl]acetyl}piperazine], the Ki under setting [3] is below 1000 nM.
For `COc1ccc(-c2cccc(N3CCN(CC(=O)N4CCN(C5CCC5)CC4)CC3)c2)cc1F` [Compound 749, 1-cyclobutyl-4-{[4-(3′-fluoro-4′-methoxybiphenyl-3-yl)piperazin-1-yl]acetyl}piperazine], the Ki under setting [1] is below 1000 nM.
On to `CCCNC(=O)c1ccc(N2CCN(CC(=O)N3CCN(C4CCC4)CC3)CC2)cc1` [Compound 1132, 4-{4-[2-(4-cyclobutylpiperazin-1-yl)-2-oxoethyl]piperazin-1-yl}-N-propylbenzamide], for which the Ki under setting [4] is below 1000 nM.
Consider `COc1cc(N2CCN(CC(=O)N3CCN(C(C)C)CC3)CC2)ccc1Br` [Compound 336, 1-(4-bromo-3-methoxyphenyl)-4-[2-(4-isopropylpiperazin-1-yl)-2-oxoethyl]piperazine], for which the Ki under setting [6] was below 1000 nM.
